According to patent publication US9765108B2 (SHILPA MEDICARE LIMITED, priority 2012, dated 2017):
Like-named read-outs stand apart in the source and are kept apart here.

Experiments:
[1] = cited from earlier work
[2] = Water content of lyophilized formulation / crystalline form; type: physicochemical; conditions: neat crystalline form as obtained after lyophilization, no bulking agent
Experimental: The secondary drying phase is the final segment of the lyophilization cycle, where residual moisture is removed from a formulation's interstitial matrix by desorption with elevated temperatures and/or reduced pressures. The final moisture content of a lyophilized formulation, which can be measured by Karl Fischer or other methods, is important because if the solid cake contains too much residual moisture, the stability of the active can be compromised.
Chemical stability is tested for both example 1 & it's corresponding placebo formulation by storing the lyophilized vials under various conditions: 25° C. and 60% relative humidity (“A”); 40° C. and 75% relative humidity (“B”); and 60° (“C”); for one month. Impurity analyses are done before storage (“Initial”) and after storage, and are expressed as percentages of the label 5-azacytidine content.

Row | Water content [2] | Compound | Solubility ([1]; 5% Tween 80 in water) | Solubility ([1]; 5% dextrose in water) | Solubility ([1]; N-methylpyrrolidone) | Solubility ([1]; acetone) | Solubility ([1]; dimethylsulfoxide (DMSO)) | Solubility ([1]; ethanol and water (50:50)) | Solubility ([1]; ethanol) | Solubility ([1]; methyl ethyl ketone) | Solubility ([1]; normal saline) | Solubility ([1]; polyethylene glycol) | Solubility ([1]; propylene glycol) | Solubility ([1]; water saturated octanol) | Solubility ([1]; water)
1 |  | Nc1ncn([C@@H]2O[C@H](CO)[C@@H](O)[C@H]2O)c(=O)n1 [5-azacytidine, 4-amino-1-β-D-ribofuranosyl-1,3,5-triazin-2(1H)-one] | sparingly soluble | sparingly soluble | sparingly soluble | insoluble | soluble | slightly soluble | insoluble | insoluble | sparingly soluble | slightly soluble | slightly soluble | sparingly soluble | sparingly soluble
2 | 0.7 % w/w | Nc1ncn([C@@H]2O[C@H](CO)[C@@H](O)[C@H]2O)c(=O)n1 [Crystalline 5-Azacytidine Form-SA-2, 5-Azacytidine] |  |  |  |  |  |  |  |  |  |  |  |  | 
3 | 0.6 % w/w | Nc1ncn([C@@H]2O[C@H](CO)[C@@H](O)[C@H]2O)c(=O)n1 [Crystalline 5-Azacytidine Form-SA-1, 5-Azacytidine] |  |  |  |  |  |  |  |  |  |  |  |  | 
